In article PMC12474259, “ITF6475, a New Histone Deacetylase 6 Inhibitor, Prevents Painful Neuropathy Induced by Paclitaxel” (Toxics, 2025):
Like-named read-outs stand apart in the source and are kept apart here.

Key:
[1] = tested on: neurofilament light (NfL); assay: Serum neurofilament light (NfL) analysis in PIPN model; format: in vivo, mouse; conditions: end of treatment
Protocol: (§1) At baseline and at the end of treatment, neurophysiological evaluations and dynamic tests were performed (Figure 1). Baseline neurophysiological results were used to randomize the animals into the 6 groups to ensure homogeneity. At the end of treatment, the animals were sacrificed by isoflurane overdose, caudal nerves, liver, spleen, thymus, kidneys, and sternum were used for histopathological analysis, and skin biopsies for intraepidermal nerve fiber (IENF) density analysis were collected. At the end of the study, blood was collected from the tail vein under isoflurane anesthesia into 1.5 mL Eppendorf tubes, centrifuged at 3500× g for 10 min at 4 °C, and then serum was transferred into a new tube and stored at –80 °C until examined for neurofilament light (NfL) level analysis.
Serum NfL concentrations were measured using an automated chemiluminescent enzyme immunoassay instrument LUMIPULSE G600 (LUMIPULSE G NfL Blood kit, Fujirebio, Pomezia, Italy). The concentration was expressed in pg/mL [27, 30, 31].

C57BL/6 female mice [2] = assay: Neuropathology, morphological analysis of caudal nerves; format: in vivo, mouse; conditions: end of treatment, PTX alone or in combination
Protocol: Caudal nerves were isolated for morphological analysis and processed as previously described, separating the proximal and the distal portions to obtain a better evaluation of the distal-to-proximal extension of the damage. Briefly, the caudal and sciatic nerves were immersion-fixed in 3% glutaraldehyde and were subsequently osmicated, dehydrated, and embedded in epoxy resin. Semithin sections of 1.5 μm thickness were prepared from at least three tissue blocks for each animal, stained with toluidine blue, and examined with a Nexcope Ne920 AUTO light microscope (TiEsseLab Srl, Milano, Italy).

C57BL/6 female mice [3] = assay: General toxicity: mortality, health, body weight, histopathology; format: in vivo; conditions: for mortality: ITF6475 all doses p.o. daily
Protocol: In the days of co-treatment, ricolinostat and all doses of ITF were administered 4 h before PTX. The animals were housed in a certified and limited-access facility with controlled temperature (22 °C ± 2) and humidity (50% ± 20) and an artificial 12 h:12 h light cycle from 7 a.m. to 7 p.m. Mice were monitored daily to evaluate the mortality and their health, and body weight was measured twice a week during the treatment period in order to monitor general conditions and to adjust the dose.
as §1
Liver, spleen, thymus, kidneys, and sternum were collected and fixed in 10% buffered formalin at room temperature for 4 days. After fixation, the sternum was decalcified for 48 h at room temperature in 10% buffered EDTA. After trimming, these samples were paraffin-embedded, cut into 3 µm thick sections, stained with hematoxylin–eosin, and examined with an Olympus BX51 light microscope (Olympus, Segrate, Italy).

C57BL/6 female mice [4] = format: in vivo; conditions: PTX + ricolinostat 50 mg/kg p.o. daily
Protocol: (§2) C57BL/6 female mice (Inotiv, Udine, Italy) were used and randomized into six different groups (19 mice/group): one group was treated with PTX vehicle i.v., 1 time/week for 4 weeks and methocel 0.5% os, daily (VEH group); a second group was treated with PTX, i.v., 70 mg/kg 1 time/week for 4 weeks (PTX group); and the other four groups were treated with PTX, i.v., 70 mg/kg 1 time/week for 4 weeks and co-treated with ricolinostat, p.o., 50 mg/kg daily (PTX + ACY group), or with ITF6475, p.o., 1–6–12.5 mg/kg daily, p.o., (PTX + ITF1, PTX + ITF6, PTX + ITF12.5 groups), respectively (Figure 1). In the days of co-treatment, ricolinostat and all doses of ITF were administered 4 h before PTX. […] Mice were monitored daily to evaluate the mortality and their health, and body weight was measured twice a week during the treatment period in order to monitor general conditions and to adjust the dose.
The onset of PIPN was assessed by evaluating the sensory nerve conduction velocity (NCV) and nerve action potential amplitude (SNAP) of caudal and digital nerves using the electromyography apparatus (Matrix Light, Micromed, Treviso, Italy). […] Latencies were measured from stimulus onset, and peak-to-peak amplitudes were calculated. The NCV was calculated considering the measured distance between the recording and the stimulating negative electrode divided by the latency. […]

[5] = Pharmacokinetic assessment in mouse plasma (LC-MS/MS); format: in vivo; conditions: for Cmax / AUC(0-t): oral; for AUC(0-t): read-out: AUC0–8h
Protocol: For the determination of ITF6475 in mouse plasma (n. 3 mice/group), aliquots of 20 µL of samples were deproteinized by adding 300 µL of acetonitrile. After centrifugation, 100 µL of the supernatant was collected from each sample and allowed to dry in a nitrogen flow at 35 °C. The residue was then reconstituted in 150 µL of the mixture in 90% water/10% acetonitrile and 0.1% formic acid.
Quantification of ITF6475 in the samples was carried out on a calibration curve in the range 1–1000 ng/mL. Quantification of Ricolinostat in mouse plasma was carried out on aliquots of 20 µL and deproteinized with 200 µL of acetonitrile. Aliquots of 100 µL of the supernatant were collected and diluted with 100 µL of the mixture in 90% water/10% acetonitrile and 0.1% formic acid. The calibration curve range was 1–1000 ng/mL.
Samples were analyzed in an LC-MS/MS system, constituted by a Prominence Shimadzu HPLC (Shimadzu Italia S.r.l., Milano, Italy) and an API6500+ triple quadrupole mass spectrometer equipped with TurboIonSpray (Sciex, Milano, Italy). Analyses were carried out in a positive mode. The system was managed through the software Analyst 1.7.2 (Sciex, Milano, Italy).

[6] = general statement on hydroxamic acids, no reference given; cited from earlier work
C57BL/6 female mice [7] = format: in vivo; conditions: end of treatment, PTX + ACY 50 mg/kg p.o. daily, p < 0.01
Protocol: as §2
To evaluate the IENF density, glabrous skin punches from the plantar hind paw were fixed in paraformaldehyde-lysine and periodate sodium (PLP) 2%, cryoprotected and serially cut in 20 μm thick sections. […] The total number of PGP 9.5-positive IENF crossing the dermal-epidermal junction was counted by a blinded examiner (ACh) under a light microscope at 40× magnification (Nexcope Ne920 AUTO light microscope, TiEsseLab Srl, Milano, Italy). […]

[8] = 4 weeks, PTX 70 mg/kg i.v. 1 time/week, ricolinostat 50 mg/kg p.o. daily

SMILES | serum NfL vs. VEH ([1]; PTX 70 mg/kg i.v. alone, p < 0.001) | morphology of distal caudal nerves (C57BL/6 female mice [2]) | morphology of proximal caudal nerves (C57BL/6 female mice [2]) | mortality (C57BL/6 female mice [3]; [8]) | mice with mild, diffuse hepatic lipidosis (C57BL/6 female mice [3]; female, C57BL/6, mouse, in vivo, 4 weeks) | protection of PTX-induced reduction in digital nerve SNAP (C57BL/6 female mice [4]) | AUC increase with dosage [5] | Cmax ([5]; 25 mg/kg, dose 25 mpk) [ng/mL] | AUC(0-t) ([5]; 25 mg/kg, dose 25 mpk) [ng·h/mL] | Cmax ([5]; 100 mg/kg, dose 100 mpk) [ng/mL] | AUC(0-t) ([5]; 100 mg/kg, dose 100 mpk) [ng·h/mL] | Cmax ([5]; 200 mg/kg, dose 200 mpk) [ng/mL] | AUC(0-t) ([5]; 200 mg/kg, dose 200 mpk) [ng·h/mL] | serum NfL vs. VEH ([1]; PTX + ACY 50 mg/kg p.o. daily, p < 0.05) | tolerability (C57BL/6 female mice [3]; 4 weeks, PTX 70 mg/kg i.v. 1 time/week, ricolinostat 50 mg/kg p.o. daily, ITF6475 1–6–12.5 mg/kg p.o. daily (all doses)) | body weight vs. VEH (C57BL/6 female mice [3]; PTX alone or in combination with ricolinostat 50 mg/kg or all doses of ITF) | relevant toxicity (C57BL/6 female mice [3]; co-treated mice, ricolinostat 50 mg/kg or ITF6475 1–12.5 mg/kg p.o. daily with PTX) | histopathology of thymus and spleen (C57BL/6 female mice [3]; end of treatment, PTX alone or in combination with ricolinostat or ITF6475) | protein binding (in words) [6] | IENF density vs. VEH (C57BL/6 female mice [7])
CC(=O)O[C@H]1C(=O)[C@@]2(C)[C@H]([C@H](OC(=O)c3ccccc3)[C@]3(O)C[C@H](OC(=O)[C@H](O)[C@@H](NC(=O)c4ccccc4)c4ccccc4)C(C)=C1C3(C)C)[C@]1(OC(C)=O)CO[C@@H]1C[C@@H]2O [PTX, paclitaxel] | statistically significant difference | even more severe axonopathy | severe axonopathy with numerous degenerated fibers | no mortality was observed | approximately 25% |  |  |  |  |  |  |  |  |  |  |  |  |  |  | 
O=C(CCCCCCNC(=O)c1cnc(N(c2ccccc2)c2ccccc2)nc1)NO [ricolinostat] |  |  |  | no mortality was observed |  | significant protection of reduction in digital nerve SNAP | increase non-linearly at doses above 25 mg/kg | 33.7 | 124 | 29.8 | 171 | 33.9 | 234 | statistically significant difference | well tolerated | statistically significant increase in body weight | no evidence of relevant toxicity | thymic and splenic hypoplasia associated with reactive extramedullary ectopic hematopoiesis | not heavily protein-bound | statistically significant reduction
